Test results: patent publication US20240150334A1, “HSD17B13 INHIBITORS AND/OR DEGRADERS” (Pfizer Inc., priority 2022, published 2024)
Structures can show the parent of a compound that is named as a salt.

target: wild type human HSD17B13 (Homo sapiens (Human), UniProt Q7Z5P4); assay: HEK_Beta-Est LCMS_IC50_Tekcel, whole-cell HEK-HSD17B13 inhibition assay, estrone production by LCMS; format: cell-based; conditions: geometric mean, HEK cells stably expressing wild type human HSD17B13, 25 μM FAC beta-estradiol, read-out: HEK_Beta-Est LCMS_IC50—Tekcel GMean IC50
Method: HEK_Beta-Est LCMS_IC50_Tekcel
Inhibition potency of test compounds was determined using a whole-cell HEK-HSD17B13 inhibition assay, utilizing a LCMS readout.
HSD17B13 uses the oxidized form of nicotinamide adenine dinucleotide (NAD+) as a cofactor during metabolism of beta-estradiol (substrate), converting NAD+ to the reduced form (NADH) and beta-estradiol to its product (estrone). Estrone production is quantified by LCMS, and used as a measure of HSD17B13 enzyme activity.
([…]: 5% CO2). […] Growth media was then removed from the cell plates and replaced with 10 μL of 2×FAC test compound, and incubated for 1 hour (with lid) at 37° C. […] The reaction was incubated for 2 hours (with lid) at 37° C. […] Amount of product (estrone) was then quantified by LCMS. Data expressed as product area ratio (PAR) were then normalized to control wells using Activity Base (IDBS). Zero percent effect (ZPE) was defined as PAR generated from uninhibited HSD17B13 (vehicle control).

Sequence of wild type human HSD17B13 (Q7Z5P4 20-300): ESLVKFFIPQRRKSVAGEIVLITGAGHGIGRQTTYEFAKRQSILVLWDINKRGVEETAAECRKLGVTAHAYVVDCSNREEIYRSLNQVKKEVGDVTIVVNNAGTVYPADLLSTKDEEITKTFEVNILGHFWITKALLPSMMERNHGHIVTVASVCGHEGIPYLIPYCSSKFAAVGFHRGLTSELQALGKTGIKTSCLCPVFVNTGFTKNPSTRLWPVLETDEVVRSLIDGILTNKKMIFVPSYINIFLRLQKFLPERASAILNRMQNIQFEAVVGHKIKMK

Row | IC50 | Structure (SMILES)
1 | 130 nM | O=C(NC[C@]12CC[C@@](c3nc(-c4ncc(C(F)(F)F)cn4)no3)(CC1)CC2)c1cc(F)c(O)c(F)c1F [Example 3, 2,3,5-Trifluoro-4-hydroxy-N-[(4-{3-[5-(trifluoromethyl)pyrimidin-2-yl]-1,2,4-oxadiazol-5-yl}bicyclo[2.2.2]octan-1-yl)methyl]benzamide]
2 | 180 nM | O=C(NC[C@]12CC[C@@](n3cc4ccc(-c5ncccn5)cc4n3)(CC1)CC2)c1cc(F)c(O)c(F)c1F [Example 7, 2,3,5-Trifluoro-4-hydroxy-N-({4-[6-(pyrimidin-2-yl)-2H-indazol-2-yl]bicyclo[2.2.2]octan-1-yl}methyl)benzamide]
3 | 120 nM | O=C(NC[C@H]1CC[C@H](n2cc3ccc(-c4cnn(CC(F)F)c4)cc3n2)CC1)c1cc(F)c(O)c(F)c1 [Example 10, N-{[(1r,4r)-4-{6-[1-(2,2-Difluoroethyl)-1H-pyrazol-4-yl]-2H-indazol-2-yl}cyclohexyl]methyl}-3,5-difluoro-4-hydroxybenzamide, trifluoroacetate salt]
4 | 240 nM | O=C(NC[C@H]1CC[C@H](n2cc3ccc(-n4cc(C(F)(F)F)cn4)cc3n2)CC1)c1cc(F)c(O)c(F)c1F [Example 11, 2,3,5-Trifluoro-4-hydroxy-N-{[(1r,4r)-4-{6-[4-(trifluoromethyl)-1H-pyrazol-1-yl]-2H-indazol-2-yl}cyclohexyl]methyl}benzamide, trifluoroacetate salt]
5 | 190 nM | O=C(NC[C@H]1CC[C@H](n2cc3cc(Cl)ccc3n2)CC1)c1cc(F)c(O)c(F)c1F [Example 26, N-{[(1r,4r)-4-(5-chloro-2H-indazol-2-yl)cyclohexyl]methyl}-2,3,5-trifluoro-4-hydroxybenzamide]
6 | 350 nM | Cn1cc(-c2ccc3nc([C@H]4CC[C@H](CNC(=O)c5cc(F)c(O)c(F)c5F)CC4)cn3c2)cn1 [Example 29, 2,3,5-trifluoro-4-hydroxy-N-({(1r,4r)-4-[6-(1-methyl-1H-pyrazol-4-yl)imidazo[1,2-a]pyridin-2-yl]cyclohexyl}methyl)benzamide]
7 | 360 nM | Cn1cc(-c2ccn3cc([C@H]4CC[C@H](CNC(=O)c5cc(F)c(O)c(F)c5F)CC4)nc3c2)cn1 [Example 30, 2,3,5-trifluoro-4-hydroxy-N-({(1r,4r)-4-[7-(1-methyl-1H-pyrazol-4-yl)imidazo[1,2-a]pyridin-2-yl]cyclohexyl}methyl) benzamide]
8 | 380 nM | O=C(NC[C@H]1CC[C@H](n2cc3cc(OCc4cccc(C(F)(F)F)n4)ncc3n2)CC1)c1cc(F)c(O)c(F)c1 [Example 33, 3,5-difluoro-4-hydroxy-N-{[(1r,4r)-4-(5-{[6-(trifluoromethyl)pyridin-2-yl]methoxy}-2H-pyrazolo[3,4-c]pyridin-2-yl)cyclohexyl]methyl}benzamide]
9 | 190 nM | O=C(NC[C@H]1CC[C@H](n2cc3ccc(-c4cnc(C(F)(F)F)cn4)cc3n2)CC1)c1cc(F)c(O)c(F)c1 [Example 78, 3,5-difluoro-4-hydroxy-N-{[(1r,4r)-4-{6-[5-(trifluoromethyl)pyrazin-2-yl]-2H-indazol-2-yl}cyclohexyl]methyl} benzamide]
10 | 370 nM | Cn1cc(-c2ccc3cn([C@H]4CC[C@H](CNC(=O)c5cc(F)c(O)c(F)c5)CC4)nc3c2)nn1 [Example 79, 3,5-difluoro-4-hydroxy-N-({(1r,4r)-4-[6-(1-methyl-1H-1,2,3-triazol-4-yl)-2H-indazol-2-yl]cyclohexyl}methyl) benzamide]
11 | 200 nM | O=C(NC[C@H]1CC[C@H](n2cc3ccc(-c4cnn5ccccc45)cc3n2)CC1)c1cc(F)c(O)c(F)c1 [Example 80, 3,5-difluoro-4-hydroxy-N-({(1r,4r)-4-[6-(pyrazolo[1,5-a]pyridin-3-yl)-2H-indazol-2-yl]cyclohexyl}methyl) benzamide, trifuoroacetate salt]
12 | 120 nM | Cc1cc(-c2ccc3cn([C@H]4CC[C@H](CNC(=O)c5cc(F)c(O)c(F)c5)CC4)nc3c2)ccn1 [Example 81, 3,5-difluoro-4-hydroxy-N-({(1r,4r)-4-[6-(2-methylpyridin-4-yl)-2H-indazol-2-yl]cyclohexyl}methyl) benzamide, trifluoroacetate salt]
